Experimental data: the supplement of paper PMC10307832

Tests used:
Test in all cases: relative viability (nuclei count vs DMSO), 5 days (fraction); higher = more cells survive
[1] = compound: c1ccc2c(CCNc3ccc(Nc4ccncc4)cc3)c[nH]c2c1 [Serdemetan] + Cc1nc(Nc2ncc(C(=O)Nc3c(C)cccc3Cl)s2)cc(N2CCN(CCO)CC2)n1 [Dasatinib] (partner 0.075 µM)
In short: (§1)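 Dosing by pin tool came one day after lung cancer cell lines were seeded in 1536-well plates, using either one drug or a fixed anchor-drug dose plus five library-drug doses (not always all listed) in √10 steps. After 5 days, nuclei were counted on 4× images. Relative viability is treated-well nuclei count divided by vehicle-well nuclei count, and values are medians of duplicate plates.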

[2] = compound: c1ccc2c(CCNc3ccc(Nc4ccncc4)cc3)c[nH]c2c1 [Serdemetan] + CCNC(=O)c1noc(-c2cc(C(C)C)c(O)cc2O)c1-c1ccc(CN2CCOCC2)cc1 [Luminespib] (partner 0.01 µM)
In short: as §1

[3] = compound: C1CC(C2=C(C1)C3=C(N2)C=CC(=C3)Cl)C(=O)N [Selisistat] + CC(C)C[C@H](NC(=O)[C@H](Cc1ccccc1)NC(=O)c1cnccn1)B(O)O [Bortezomib] (partner 0.002 µM)
In short: as §1

[4] = compound: C1CC(C2=C(C1)C3=C(N2)C=CC(=C3)Cl)C(=O)N [Selisistat] + Nc1ncn([C@H]2C[C@H](O)[C@@H](CO)O2)c(=O)n1 [Decitabine] (partner 2 µM)
In short: as §1

Row | Cell Line | relative viability ([1]; first compound 0.04 µM) | relative viability ([1]; first compound 0.1265 µM) | relative viability ([1]; first compound 0.4 µM) | relative viability ([1]; first compound 1.265 µM) | relative viability ([1]; first compound 4 µM) | relative viability ([2]; first compound 0.04 µM) | relative viability ([2]; first compound 0.1265 µM) | relative viability ([2]; first compound 0.4 µM) | relative viability ([2]; first compound 1.265 µM) | relative viability ([2]; first compound 4 µM) | relative viability ([3]; first compound 0.4 µM) | relative viability ([3]; first compound 1.265 µM) | relative viability ([3]; first compound 4 µM) | relative viability ([3]; first compound 12.65 µM) | relative viability ([3]; first compound 40 µM) | relative viability ([4]; first compound 0.4 µM) | relative viability ([4]; first compound 1.265 µM) | relative viability ([4]; first compound 12.65 µM) | relative viability ([4]; first compound 40 µM) | relative viability ([4]; first compound 4 µM)
1 | PC-3 [JPC-3] | 0.973 | 0.95 | 1.01 | 0.924 | 0.941 | 0.651 | 0.612 | 0.621 | 0.654 | 0.494 | 0.796 | 0.788 | 0.828 | 0.81 | 0.885 | 0.834 | 0.837 | 0.818 | 0.794 | –
2 | PC-14 | 0.262 | 0.247 | 0.115 | 0.308 | 0.147 | 0.129 | 0.163 | – | 0.149 | 0.107 | 0.848 | 0.713 | 0.861 | 0.886 | 0.888 | 0.201 | 0.217 | 0.237 | 0.243 | 0.221
3 | RERF-LC-KJ | 0.837 | 0.788 | 0.667 | 0.657 | 0.69 | 1.43 | 1.16 | 1.17 | 1.1 | 1.12 | 1.18 | 1.02 | 0.974 | 1 | 1.05 | 0.806 | 0.601 | 0.61 | 0.614 | 0.593
4 | SK-LU-1 | 0.212 | 0.183 | 0.183 | – | 0.179 | 0.19 | 0.201 | 0.223 | – | 0.207 | 1.23 | – | 1.27 | 0.998 | 1.75 | 0.716 | 0.675 | 0.604 | 0.679 | 0.676
5 | SW 1573 | 0.452 | 0.488 | 0.511 | 0.396 | 0.217 | 0.343 | 0.161 | 0.215 | 0.113 | 0.192 | 1.19 | 1.02 | 1.03 | 1.02 | 1.03 | 0.604 | 0.453 | 0.502 | 0.459 | 0.347
